{"source": "patent US6979471B1", "about": "“Composition comprising pharmaceutical/nutraceutical agent and a bio-enhancer obtained from Glycyrrhiza glabra” (Council of Scientific and Industrial Research, priority 2000, dated 2005)", "assay_type_in_all_cases": "cell-based", "key": {"[1]": {"tested_on": "Candida albicans (ATCC 10231)", "test": "Disc diffusion assay, antifungal agent against Candida albicans", "settings": "Candida albicans, ATCC10231; glycyrrhizin 1 μg/disc alone, clotrimazole 0", "procedure": "(§1) • a) The minimum inhibitory concentration (MIC) of any antibiotic or drug molecule is determined against Escherichia coli (ATCC 10536), Bacillus subtilis (ATCC 6015) and Mycobacterium smegmatis (ATCC 14468) and Candida albicans (ATCC 10231) in broth and disc diffusion assays. • b) The antibiotics or antifungal agents at concentrations 1/10, ⅛, ⅙, ¼, ⅓, ½ and equal to MIC are added alone and in combination with the test compound at varying concentrations in broth assays to evaluate the comparative level of inhibition and similarly at varying concentrations in disc diffusion assay. • c) The combinations showing enhancement in terms of higher activity than antibiotic alone for the inhibition of bacterial growth (large inhibition zone in disc diffusion and higher killing at lower concentration in broth assay) are picked up for future testing. • d) In broth assays the activity is quantified by counting number of viable cells in a given treatment and converted in fold enhancement by the combination treatment compared to antibiotic/drug alone in the killing percentage of cells. • e) The pretreatment assay is followed to determine whether the bioenhancer which may be either an extract obtained from the plant Glycyrrhiza glabra, glycyrrhizin or glycyrrhizic acid, is required along with antibiotic to enhance its activity or even its withdrawal after treatment or prior to antibiotic treatment would benefit. […] Assay for Bio-Enhancement of Anti-Cancer Agents • a) MCF-7 (Breast cancer cell line is inoculated at a density of about 0.1×10^6 cells in MEM medium in the wells of 24 well plate. • b) The used up medium in these cultures is replaced with fresh medium after 18 hours in each well. • c) The test compound (s) is added at desired concentrations in different wells just after the medium replacement. • d) Observations are recorded on the cell count after 36 hours for which the following steps are required. • i. […] The number of viable cells is counted in 5 big squares and the reading is taken from 5 microscopic fields to determine the average. • viii. […]"}, "[2]": {"tested_on": "MCF-7 (Breast cancer cell line)", "test": "Assay for bio-enhancement of anti-cancer agents: viable cell count after 36 hours", "settings": "glycyrrhizin alone, without taxol; untreated control […] 10^−6", "procedure": "(§2) For this, the cells are treated with the bioenhancer/compound for 4 to 8 hours and then washed free of it by centrifugation and washing in sterile water. […] 2. Assay for Bio-Enhancement of Anti-Cancer Agents • a) MCF-7 (Breast cancer cell line is inoculated at a density of about 0.1×10^6 cells in MEM medium in the wells of 24 well plate. • b) The used up medium in these cultures is replaced with fresh medium after 18 hours in each well. • c) The test compound (s) is added at desired concentrations in different wells just after the medium replacement. • d) Observations are recorded on the cell count after 36 hours for which the following steps are required. • i. The medium is removed from the wells. • ii. The wells are rinsed with 1 ml PBS (Phosphate buffer saline). • iii. To each well 500 μl of freshly prepared trypsin solution (0.1% in PBS) is added. • iv. Trypsin solution is removed after 30 seconds and the plate is gently tapped till the cells are released from the plate surface. • v. Fresh 1 ml of MEM growth medium is added and agitated with a pipette to obtain a cell suspension. • vi. 10 μl of cell suspension is taken on the haemocytometer and a cover glass is placed over the counting chamber. • vii. The number of viable cells is counted in 5 big squares and the reading is taken from 5 microscopic fields to determine the average. • viii. The cell count (titre per ml) in the original sample is then calculated as average count×10^3. Composition of Minimum Essential Medium (MEM): 100 ml"}, "[3]": {"tested_on": "Escherichia coli, Bacillus subtilis and Mycobacterium smegmatis", "test": "Bacteria grown with glycyrrhizin alone; pretreatment assay", "procedure": "For this, the cells are treated with the bioenhancer/compound for 4 to 8 hours and then washed free of it by centrifugation and washing in sterile water. […] The medium is removed from the wells. • ii. The wells are rinsed with 1 ml PBS (Phosphate buffer saline). • iii. To each well 500 μl of freshly prepared trypsin solution (0.1% in PBS) is added. • iv. Trypsin solution is removed after 30 seconds and the plate is gently tapped till the cells are released from the plate surface. • v. Fresh 1 ml of MEM growth medium is added and agitated with a pipette to obtain a cell suspension. • vi. 10 μl of cell suspension is taken on the haemocytometer and a cover glass is placed over the counting chamber. • vii. […] The cell count (titre per ml) in the original sample is then calculated as average count×10^3. Composition of Minimum Essential Medium (MEM): 100 ml In the next step of elucidation of the enhancer action the applicants experimented with the killing activities of different antibiotics against the bacteria singly and in combination with the test compound glycyrrhizin following the method described above. These experiments are to be considered with assay for bioenhancement of the compounds glycyrrhizin/glycyrrhizic acid and licorice, as described earlier. […]"}, "[4]": {"tested_on": "Escherichia coli (ATCC 10536)", "test": "Broth assay for bio-enhancement of antibiotics: viable cell count, Escherichia coli"}, "[5]": {"tested_on": "Mycobacterium smegmatis (ATCC 14468)", "test": "Broth assay for bio-enhancement of antibiotics: viable cell count, Mycobacterium smegmatis", "settings": "Table 3", "procedure": "as §2\nIn the next step of elucidation of the enhancer action the applicants experimented with the killing activities of different antibiotics against the bacteria singly and in combination with the test compound glycyrrhizin following the method described above. These experiments are to be considered with assay for bioenhancement of the compounds glycyrrhizin/glycyrrhizic acid and licorice, as described earlier. […] In all the experiments the glycyrrhizin concentration was kept at 1 μg/ml, unless it is specifically mentioned."}, "Escherichia coli": {"tested_on": "Escherichia coli", "test": "Disc diffusion assay against Escherichia coli", "procedure": "as §1"}, "Mycobacterium smegmatis": {"tested_on": "Mycobacterium smegmatis", "test": "Disc diffusion assay against Mycobacterium smegmatis", "procedure": "as §1"}}, "data": [{"molecule": "CC1(C)[C@@H](O[C@H]2O[C@H](C(=O)O)[C@@H](O)[C@H](O)[C@H]2O[C@@H]2O[C@H](C(=O)O)[C@@H](O)[C@H](O)[C@H]2O)CC[C@]2(C)[C@H]3C(=O)C=C4[C@@H]5C[C@@](C)(C(=O)O)CC[C@]5(C)CC[C@@]4(C)[C@]3(C)CC[C@@H]12", "note": "[Glycyrrhizin]", "values": [{"measurement": "zone of inhibition at 1 µg/disc", "setting": "[1]", "value": 0, "unit": "mm"}, {"measurement": "Final titre of viable cells, without taxol, control (glycyrrhizin)", "setting": "[2]", "value": "0.12 × 10^−6 per ml"}, {"measurement": "Enhancement of antibiotic potency after pretreatment of bacterial cells", "setting": "[3]; cells pretreated with glycyrrhizin for 4–8 hours, washed free, then treated with antibiotics", "value": "the same results were observed"}, {"measurement": "Killing of bacteria grown in presence of the compound as such", "setting": "[3]; glycyrrhizin alone, no antibiotic", "value": "no significant killing"}]}, {"molecule": "CO[C@H]1/C=C/O[C@@]2(C)Oc3c(C)c(O)c4c(O)c(c(/C=N/N5CCN(C)CC5)c(O)c4c3C2=O)NC(=O)/C(C)=C\\C=C\\[C@H](C)[C@H](O)[C@@H](C)[C@@H](O)[C@@H](C)[C@H](OC(C)=O)[C@@H]1C", "note": "[Rifampicin]", "values": [{"measurement": "Survival fraction of viable cells upon treatment with antibiotic alone (a)", "setting": "[4]; Table 1, antibiotic 10 μg/ml", "value": 0.42}, {"measurement": "Survival fraction of viable cells upon treatment with antibiotic- glycyrrhizin combination (b)", "setting": "[4]; Table 1, antibiotic 10 μg/ml + glycyrrhizin 1 μg/ml", "value": 0.11}, {"measurement": "*Folds enhancement in antibiotic activity (a/b)", "setting": "[4]; Table 1, antibiotic 10 μg/ml, glycyrrhizin 1 μg/ml", "value": 3.8, "unit": "folds"}, {"measurement": "Survival fraction of viable cells upon treatment with antibiotic alone (a)", "setting": "[4]; Table 1, antibiotic 20 μg/ml", "value": 0.28}, {"measurement": "Survival fraction of viable cells upon treatment with antibiotic- glycyrrhizin combination (b)", "setting": "[4]; Table 1, antibiotic 20 μg/ml + glycyrrhizin 1 μg/ml", "value": 0.02}, {"measurement": "*Folds enhancement in antibiotic activity (a/b)", "setting": "[4]; Table 1, antibiotic 20 μg/ml, glycyrrhizin 1 μg/ml", "value": 14.0, "unit": "folds"}, {"measurement": "Survival fraction of viable cells upon treatment with antibiotic glycyrrhizic acid combination (b)", "setting": "[4]; Table 7, antibiotic 20 μg/ml + glycyrrhizic acid", "value": 0.281}, {"measurement": "Survival fraction of viable cells upon treatment with antibiotic glycyrrhizic acid combination (b)", "setting": "[4]; Table 7, antibiotic 20 μg/ml + glycyrrhizic acid, listed as rifampicin", "value": "about 0.281"}, {"measurement": "*Folds enhancement in antibiotic activity (a/b)", "setting": "[4]; Table 7, antibiotic 20 μg/ml, glycyrrhizic acid", "value": 2.03, "unit": "folds"}, {"measurement": "Survival fraction of viable cells upon treatment with antibiotic alone (a)", "setting": "[4]; Table 10, antibiotic 10 μg/ml", "value": 0.420}, {"measurement": "Survival fraction of viable cells upon treatment with antibiotic glycyrrhizic acid combination (b)", "setting": "[4]; Table 10, antibiotic 10 μg/ml + licorice 25 μg/ml", "value": 0.135}, {"measurement": "*Folds enhancement in antibiotic activity (a/b)", "setting": "[4]; Table 10, antibiotic 10 μg/ml, licorice 25 μg/ml", "value": 3.10, "unit": "folds"}, {"measurement": "Survival fraction of viable cells upon treatment with antibiotic alone (a)", "setting": "[5]; antibiotic 0.5 μg/ml", "value": "0.56 × 10^−4"}, {"measurement": "Survival fraction of viable cells upon treatment with antibiotic- glycyrrhizin combination (b)", "setting": "[5]; antibiotic 0.5 μg/ml + glycyrrhizin 1 μg/ml", "value": "0.086 × 10^−4"}, {"measurement": "*Folds enhancement in antibiotic activity (a/b)", "setting": "[5]; antibiotic 0.5 μg/ml, glycyrrhizin 1 μg/ml", "value": 6.5, "unit": "folds"}, {"measurement": "zone of inhibition at 500 µg/disc", "setting": "Escherichia coli; Escherichia coli, read-out: Net zone of inhibition", "value": 2, "unit": "mm"}, {"measurement": "Net zone of inhibition", "setting": "Escherichia coli; rifampicin 500 μg/disc + glycyrrhizic acid 4 μg/disc", "value": 3, "unit": "mm"}, {"measurement": "zone of inhibition at 0.4 µg/disc", "setting": "Mycobacterium smegmatis; Mycolicibacterium smegmatis, read-out: Net zone of inhibition", "value": 3, "unit": "mm"}, {"measurement": "Net zone of inhibition", "setting": "Mycobacterium smegmatis; rifampicin 0.4 μg/disc + glycyrrhizic acid 4 μg/disc", "value": 4, "unit": "mm"}]}]}
